Experimental data taken from patent publication US20240366711A1, “PREPARATION CONTAINING CYCLIC PEPTIDE COMPOUND AND METHOD FOR PRODUCING SAME” (CHUGAI SEIYAKU KABUSHIKI KAISHA, priority 2021, published 2024).
Bridge positions count the residues as written; N and C are the ends. Square brackets hold non-standard residues; d marks the D form. Peptide text beside a SMILES is read from it. hPhe(3,5-F2-4-CF3) = N[C@@H](CCc1cc(F)c(C(F)(F)F)c(F)c1)C(=O)O; NEtPhe(4-Me) = CCN[C@@H](Cc1ccc(C)cc1)C(=O)O; NMeGly(cPent) = CN[C@H](C(=O)O)C1CCCC1; NMeD = CN[C@@H](CC(=O)O)C(=O)O; NMeL = CN[C@@H](CC(C)C)C(=O)O; NMeA = CN[C@@H](C)C(=O)O; Ac5c = NC1(C(=O)O)CCCC1; Aze = O=C(O)[C@@H]1CCN1; Sar = CNCC(=O)O

How the values were obtained:
[1] = tested on: Human pancreatic cancer strain AsPC-1; assay: AsPC-1 cell growth inhibitory activity (AsPC-1CGI); format: cell-based; details: AsPC-1 cells, 96 hours, CellTiter-Glo; read-out: IC50 value (50% growth inhibition concentration)
Method: AsPC-1 cell growth inhibitory activity can be performed by methods known to those skilled in the art using devices, reagents, cell lines, and the like available from commercial suppliers. Specifically, Compound 1 was serially diluted with dimethyl sulfoxide, then 200 nL of the dilution was dispensed into the U-bottom 96 well plate with Labcyte Echo. Human pancreatic cancer strain AsPC-1 was added to RPMI-1640 medium supplemented with 15% bovine fetal serum to prepare a cell suspension of 1000 cells/100 μL. The cell suspension was dispensed by 100 μL per well to Compound 1-added plates, and cultured in a 37° C., 5% carbon dioxide gas incubator. After 96 hours, 80 μL of CellTiter-Glo (Promega Corporation) was added to each well, and […] was measured. Cell growth inhibition (CGI) of the test compound was calculated as 50% growth inhibition concentration (IC50 value) from the growth inhibition rate of the case with addition of Compound I to the control without addition of Compound 1.

[2] = target: Kras-SOS1 protein-protein interaction (Homo sapiens, UniProt P01116, G12D); assay: Kras-SOS1 protein-protein interaction inhibition (KrasG12D-SOS PPI) using AlphaScreen; format: binding; details: biotin-tagged human Kras (GDP-loaded) and His-tagged human SOS1, AlphaScreen
Sequence of Kras-SOS1 protein-protein interaction (P01116 whole entry G12D): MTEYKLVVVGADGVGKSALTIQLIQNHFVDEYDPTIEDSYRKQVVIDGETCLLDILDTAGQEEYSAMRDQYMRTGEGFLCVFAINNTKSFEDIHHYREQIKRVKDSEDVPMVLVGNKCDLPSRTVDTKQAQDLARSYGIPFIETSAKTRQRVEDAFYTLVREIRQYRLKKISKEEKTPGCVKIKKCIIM
Method: Kras-SOS1 protein-protein interaction inhibition (PPI) can be performed by a method known to those skilled in the art using a device, a reagent, or the like available from commercial suppliers. Specifically, biotin-tagged human Kras and His-tagged human SOS1 enzymes expressed in E. coli and loaded with GDP after purification were used to measure PPI by energy transfer from nickel-bound donor beads to streptavidin-bound acceptor beads. This measurement is performed by irradiating the donor beads with light of 680 nm to induce energy transfer to the acceptor beads via singlet oxygen, and detecting light of 520 to 620 nm from the acceptor beads. Based on the inhibition of the control group without Compound 1, 50% inhibitory concentration (IC50 value) was calculated.

Compound: CC[C@H](C)[C@@H]1NC(=O)[C@H](CC(C)C)N(C)C(=O)C[C@@H](C(=O)N(C)C)N(C)C(=O)[C@H](C2CCCC2)N(C)C(=O)C2(CCCC2)NC(=O)[C@@H]2CCCN2C(=O)[C@H](CCc2cc(F)c(C(F)(F)F)c(F)c2)NC(=O)CN(C)C(=O)[C@H](Cc2ccc(C)cc2)N(CC)C(=O)[C@@H]2CCN2C(=O)[C@H](C)N(C)C1=O [Compound 1, (5S,8S,11S,15S,18S,23aS,29S,35S,37aS)-8-((S)-sec-butyl)-18-cyclopentyl-29-(3,5-difluoro-4-(trifluoromethyl)phenethyl)-36-ethyl-11-isobutyl-N,N,5,6,12,16,19,33-octamethyl-35-(4-methylbenzyl)-4,7,10,13,17,20,23,28,31,34,37-undecaoxotetratriacontahydro-2H,4H-spiro[azeto[2,1-u]pyrrolo[2,1-i][1,4,7,10,13,16,19,22,25,28,31]undecaazacyclotetratriacontin-21,1′-cyclopentane]-15-carboxamide] ([NMeL]I[NMeA][Aze][NEtPhe(4-Me)][Sar][hPhe(3,5-F2-4-CF3)]P[Ac5c][NMeGly(cPent)][NMeD]-NMe2; lactam N-11)
- IC50 [1]: ≤ 20 nM
- IC50 [2]: 1 nM
